Broadly, the EC50 is the concentration at which the effect is half-maximal. High values mean weaker potency, low ones greater potency.

Results on 39 molecules are retold here after EP4725948A1, “PYRROLO[2,3-D]PYRIMIDIN-4-AMINE DERIVATIVE AND USE THEREOF IN MEDICINE” (Haisco Pharmaceutical Group Co., Ltd., priority 2023, dated 2024).

One series concerns the target T1, soluble guanylate cyclase (sGC) (Homo sapiens, UniProt Q02108+Q02153).
T1 sequence (Q02108 1-690): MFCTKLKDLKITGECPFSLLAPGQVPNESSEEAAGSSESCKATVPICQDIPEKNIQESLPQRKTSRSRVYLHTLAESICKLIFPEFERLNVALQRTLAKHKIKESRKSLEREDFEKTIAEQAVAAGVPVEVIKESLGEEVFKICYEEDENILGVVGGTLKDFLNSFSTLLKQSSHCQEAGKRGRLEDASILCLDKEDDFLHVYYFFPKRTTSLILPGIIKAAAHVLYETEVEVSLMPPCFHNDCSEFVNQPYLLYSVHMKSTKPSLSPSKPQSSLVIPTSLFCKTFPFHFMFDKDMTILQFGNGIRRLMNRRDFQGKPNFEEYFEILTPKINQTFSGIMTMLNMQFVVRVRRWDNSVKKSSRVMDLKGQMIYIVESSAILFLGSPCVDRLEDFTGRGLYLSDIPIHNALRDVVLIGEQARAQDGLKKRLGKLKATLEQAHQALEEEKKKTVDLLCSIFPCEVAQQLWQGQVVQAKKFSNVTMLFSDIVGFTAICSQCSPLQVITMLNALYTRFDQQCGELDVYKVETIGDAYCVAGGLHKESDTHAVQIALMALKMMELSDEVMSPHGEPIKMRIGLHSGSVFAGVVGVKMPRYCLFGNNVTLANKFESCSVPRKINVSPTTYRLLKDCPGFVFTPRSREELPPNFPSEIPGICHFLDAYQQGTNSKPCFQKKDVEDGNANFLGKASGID
T1 sequence (Q02153 1-619): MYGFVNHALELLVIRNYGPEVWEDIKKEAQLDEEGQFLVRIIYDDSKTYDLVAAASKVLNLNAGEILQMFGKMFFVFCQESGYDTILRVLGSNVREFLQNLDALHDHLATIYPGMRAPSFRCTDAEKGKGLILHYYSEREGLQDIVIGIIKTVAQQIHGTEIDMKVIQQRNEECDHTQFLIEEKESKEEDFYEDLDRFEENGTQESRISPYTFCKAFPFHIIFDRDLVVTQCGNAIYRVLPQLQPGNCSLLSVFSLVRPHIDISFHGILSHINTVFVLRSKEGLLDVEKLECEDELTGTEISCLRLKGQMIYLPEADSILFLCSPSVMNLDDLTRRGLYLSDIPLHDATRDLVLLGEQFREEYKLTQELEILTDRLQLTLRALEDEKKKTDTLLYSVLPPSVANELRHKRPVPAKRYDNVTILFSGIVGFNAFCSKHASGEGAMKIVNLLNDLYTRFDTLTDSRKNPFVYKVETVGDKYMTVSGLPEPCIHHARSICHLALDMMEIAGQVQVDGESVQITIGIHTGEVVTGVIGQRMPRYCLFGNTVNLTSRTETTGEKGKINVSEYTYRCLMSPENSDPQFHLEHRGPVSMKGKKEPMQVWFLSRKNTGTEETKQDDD
Description: In vitro detection experiment for soluble guanylate cyclase (sGC) activity (TR-FRET).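 Also: enzyme reaction started with GTP and run for 60 min at 37°C, followed by a 60 min detection step at room temperature, with EC50 obtained by nonlinear curve fitting.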
Settings: not given
(In general: In TR-FRET formats the signal depends on donor and acceptor labels being close together.)
`CC(C)(Cc1coc(C2(C)C(=O)Nc3nc(-c4nn(CCC(F)(F)C(F)(F)F)c5cc(Cl)cnc45)nc(N)c32)n1)C(=O)O` (centres unmarked) [Compound 21] registered an EC50 below 20 nM. Consider `CC(C)(Cc1csc(C2(C)C(=O)Nc3nc(-n4nc(Cc5ccccc5F)c5ncc(F)cc54)nc(N)c32)n1)C(=O)O` (racemic) [Compound 35], for which the EC50 is below 20 nM. Take `CC(C)(Cc1csc(C2(C)C(=O)Nc3nc(-n4nc(Cc5ccccc5F)c5c(F)cccc54)nc(N)c32)n1)C(=O)O` (racemic) [Compound 41]: the EC50 was below 20 nM. In the case of `CC(C)(Cc1cccc(C2(C)C(=O)Nc3nc(-n4c(=O)n(CCC(F)(F)C(F)(F)F)c5cc(Cl)ccc54)nc(N)c32)c1)C(=O)O` (single isomer, unassigned) [Compound 1-2], the EC50 is below 20 nM. `CC(C)(Cc1coc(C2(C)C(=O)Nc3nc(-n4nc(Cc5ccccc5F)c5cc(Cl)ccc54)nc(N)c32)n1)C(=O)O` (centres unmarked) [Trifluoroacetate of compound 34]: the EC50 is below 20 nM. The molecule `CC(C)(Cc1csc(C2(C)C(=O)Nc3nc(-c4nc(CCC(F)(F)C(F)(F)F)n5cc(F)ccc45)nc(N)c32)n1)C(=O)O` (racemic) [Compound 45] yielded an EC50 below 20 nM. On the same count and under the same terms, next, `CC(C)(Cc1csc(C2(C)C(=O)Nc3nc(-n4c(=O)n(CC5CCCCC5)c5ncc(F)cc54)nc(N)c32)n1)C(=O)O` (centres unmarked) [Compound 13]: below 20 nM. In turn, `CC(C)(Cc1csc(C2(C)C(=O)Nc3nc(-c4nn(Cc5ccccc5F)c5cccnc45)nc(N)c32)n1)C(=O)O` (centres unmarked) [Trifluoroacetate of compound 23] returned an EC50 below 20 nM. In the case of `CC(C)(Cc1csc(C2(C)C(=O)Nc3nc(-c4nn(CCC(F)(F)C(F)(F)F)c5cc(Cl)cnc45)nc(N)c32)n1)C(=O)O` (centres unmarked) [Compound 20], the EC50 is below 20 nM. Molecule `CC(C)(Cc1csc(C2(C)C(=O)Nc3nc(-n4c(=O)n(Cc5cccc(F)c5F)c5ncc(F)cc54)nc(N)c32)n1)C(=O)O` (centres unmarked) [Trifluoroacetate of compound 28] had an EC50 below 20 nM. On the same count and under the same terms, the same measure for `CC(C)(Cc1csc(C2(C)C(=O)Nc3nc(-n4nc(CCC(F)(F)C(F)(F)F)c5cc(Cl)ccc54)nc(N)c32)n1)C(=O)O` (racemic) [Trifluoroacetate of compound 4]: below 20 nM; for `CC(C)(Cc1csc(C2(C)C(=O)Nc3nc(-n4c(=O)n(CCC(F)(F)C(F)(F)F)c5ncc(F)cc54)nc(N)c32)n1)C(=O)O` (racemic) [Compound 12]: below 20 nM; for `CC(C)(Cc1csc(C2(C)C(=O)Nc3nc(-n4nc(Cc5cccc(F)c5F)c5ncc(F)cc54)nc(N)c32)n1)C(=O)O` (racemic) [Compound 36]: below 20 nM.

With `CC(C)(Cc1cccc(C2(C)C(=O)Nc3nc(-c4nc(CCC(F)(F)C(F)(F)F)n5ncccc45)nc(N)c32)c1)C(=O)O` (centres unmarked) [Compound 18], the EC50 is below 20 nM.

Consider `CC(C)(Cc1coc(C2(C)C(=O)Nc3nc(-n4c(=O)n(CCC(F)(F)C(F)(F)F)c5c(F)cccc54)nc(N)c32)n1)C(=O)O` (centres unmarked) [Compound 16], for which the EC50 is below 20 nM. In the case of `CC(C)(Cc1coc(C2(C)C(=O)Nc3nc(-n4nc(Cc5ccccc5F)c5c(F)cccc54)nc(N)c32)n1)C(=O)O` (centres unmarked) [Compound 40], the EC50 is below 20 nM. Same read-out and setting: the same measure for `CC(C)(Cc1coc(C2(C)C(=O)Nc3nc(-c4nc(CCC(F)(F)C(F)(F)F)n5cc(F)ccc45)nc(N)c32)n1)C(=O)O` (centres unmarked) [Compound 46]: below 20 nM; for `CC(C)(Cc1cccc(C2(C)C(=O)Nc3nc(-n4nc(CCC(F)(F)C(F)(F)F)c5ncccc54)nc(N)c32)c1)C(=O)O` (centres unmarked) [Trifluoroacetate of compound 5]: below 20 nM.

Turning to `CC(C)(Cc1csc(C2(C)C(=O)Nc3nc(-c4nc(CCC(F)(F)C(F)(F)F)n5ncccc45)nc(N)c32)n1)C(=O)O` (racemic) [Compound 3], the EC50 is below 20 nM. Consider `CC(C)(Cc1csc(C2(C)C(=O)Nc3nc(-n4c(=O)n(CCC(F)(F)C(F)(F)F)c5ncccc54)nc(N)c32)n1)C(=O)O` (centres unmarked) [Trifluoroacetate of compound 10], for which the EC50 is below 20 nM. As to `CC(C)(Cc1csc(C2(C)C(=O)Nc3nc(-n4nc(CCC(F)(F)C(F)(F)F)c5ncc(F)cc54)nc(N)c32)n1)C(=O)O` (racemic) [Compound 37], the EC50 is below 20 nM.

`CC(C)(Cc1csc(C2(C)C(=O)Nc3nc(-c4nc(Cc5ccccc5F)n5ncccc45)nc(N)c32)n1)C(=O)O` (racemic) [Compound 19] gave an EC50 below 20 nM. `CC(C)(Cc1coc(C2(C)C(=O)Nc3nc(-n4nc(Cc5cccc(F)c5F)c5c(F)cccc54)nc(N)c32)n1)C(=O)O` (centres unmarked) [Compound 42] displayed an EC50 below 20 nM. As to `CC(C)(Cc1csc(C2(C)C(=O)Nc3nc(-n4c(=O)n(Cc5ccccc5F)c5cc(F)ccc54)nc(N)c32)n1)C(=O)O` (racemic) [Trifluoroacetate of compound 38], the EC50 was below 20 nM.

`CC(C)(Cc1csc(C2(C)C(=O)Nc3nc(-n4nc(CCC(F)(F)C(F)(F)F)c5cc(F)ccc54)nc(N)c32)n1)C(=O)O` (racemic) [Compound 17] yielded an EC50 below 20 nM. `CC(C)(Cc1csc(C2(C)C(=O)Nc3nc(-c4nn(Cc5cccc(F)c5F)c5cccnc45)nc(N)c32)n1)C(=O)O` (centres unmarked) [Compound 24] showed an EC50 below 20 nM. `CC(C)(Cc1csc(C2(C)C(=O)Nc3nc(-n4nc(CCC(F)(F)C(F)(F)F)c5ncccc54)nc(N)c32)n1)C(=O)O` (centres unmarked) [Compound 29] showed an EC50 below 20 nM.

Molecule `CC(C)(Cc1cccc(C2(C)C(=O)Nc3nc(-n4c(=O)n(CCC(F)(F)C(F)(F)F)c5ncccc54)nc(N)c32)c1)C(=O)O` (racemic) [Compound 9] came in with an EC50 below 20 nM. As to `CC(C)(Cc1csc(C2(C)C(=O)Nc3nc(-n4c(=O)n(CCC(F)(F)C(F)(F)F)c5c(F)cccc54)nc(N)c32)n1)C(=O)O` (racemic) [Trifluoroacetate of compound 14], the EC50 was below 20 nM. On the same count and under the same terms, the same measure for `CC(C)(Cc1csc(C2(C)C(=O)Nc3nc(-n4nc(CC5CCCCC5)c5ncc(F)cc54)nc(N)c32)n1)C(=O)O` (centres unmarked) [Compound 44]: below 20 nM; for `CC(C)(Cc1coc(C2(C)C(=O)Nc3nc(-n4c(=O)n(CCC(F)(F)C(F)(F)F)c5cc(F)ccc54)nc(N)c32)n1)C(=O)O` (centres unmarked) [Compound 11]: below 20 nM.

The series is the same for the next values; noted with them: enzymatic agonism and/or activation of sGC; 1.5 nM sGC, 5 µM GTP, 100 µM DETA NONOate.
`CC(C)(Cc1csc(C2(C)C(=O)Nc3nc(-n4c(=O)n(CCC(F)(F)C(F)(F)F)c5cc(F)ccc54)nc(N)c32)n1)C(=O)O` (centres unmarked) [Compound 31] yielded an EC50 below 20 nM. On the same count and under the same terms, next, `CC(C)(Cc1csc(C2(C)C(=O)Nc3nc(-n4nc(Cc5ccccc5F)c5cc(Cl)ccc54)nc(N)c32)n1)C(=O)O` (centres unmarked) [Trifluoroacetate of compound 32]: below 20 nM; `CC(C)(Cc1csc(C2(C)C(=O)Nc3nc(-n4c(=O)n(Cc5ccccc5F)c5c(F)cccc54)nc(N)c32)n1)C(=O)O` (centres unmarked) [Trifluoroacetate of compound 15]: below 20 nM; `CC(C)(Cc1coc(C2(C)C(=O)Nc3nc(-n4c(=O)n(CCC(F)(F)C(F)(F)F)c5cc(Cl)ccc54)nc(N)c32)n1)C(=O)O` (centres unmarked) [Compound 8]: below 20 nM. The same measure, in the same setting: next, `CC(C)(Cc1coc(C2(C)C(=O)Nc3nc(-n4nc(CCC(F)(F)C(F)(F)F)c5cc(F)ccc54)nc(N)c32)n1)C(=O)O` (centres unmarked) [Trifluoroacetate of compound 33]: below 20 nM.

System in a further series: not listed separately
Put plainly: Pharmacokinetic test in rats (inhalation administration). The conditions noted are these: SD rats, single inhalation dose 0.03 mg/kg.
Description: Experimental objective: In this experiment, the test compound was administered as a single dose via inhalation to SD rats, and the concentrations of the test compound in rat plasma and lungs were determined to evaluate the pharmacokinetic characteristics and bioavailability of the test compound in the rats.
Experimental animals: Male SD rats, 180-200 g, purchased from Chengdu Dossy Experimental Animals Co., Ltd.
Experimental method: On the day of the experiment, SD rats were randomly assigned into 6 groups according to body weight (for each compound), with 2 rats in each group. The rats were fasted with water available for 12 to 16 hours one day before the administration, and were fed 4 hours after the administration.
Plasma sampling: before and after the administration, blood was taken from the orbits of the rats under isoflurane anaesthesia, and placed in an EDTAK2 centrifuge tube. Centrifugation was performed at 6000 rpm at 4°C for 10 min, and the plasma was collected.
Lung tissue sampling: Animals from each group were euthanised by CO2 inhalation at 0.25, 0.5, 1, 4, 7 and 24 hours after the administration. Then, the animal was dissected to collect lung tissue, which was rinsed with physiological saline, dried with filter paper, weighed in the balance, kept on wet ice and homogenised within 2 hours using a 6-fold volume (i.e., 6 mL per 1 g of tissue) of homogenisation buffer (50% methanol-water).
Before analysis and detection, all samples were stored at -60°C. The samples were analysed quantitatively by LC-MS/MS.
For the molecule `CC(C)(Cc1csc([C@]2(C)C(=O)Nc3nc(-c4nc(CCC(F)(F)C(F)(F)F)n5ncccc45)nc(N)c32)n1)C(=O)O` [Compound 3-1], the “Lung AUC0-t/plasma AUC0-t” value is given as 65. For the molecule `CC(C)(Cc1csc([C@]2(C)C(=O)Nc3nc(-c4nc(CCC(F)(F)C(F)(F)F)n5cc(F)ccc45)nc(N)c32)n1)C(=O)O` [Compound 45-1], the “Lung AUC0-t/plasma AUC0-t” value is recorded as 43.4.

Still in this series, the particulars now being: SD rats, single inhalation dose 0.03 mg/kg, lung tissue.
Take `CC(C)(Cc1csc(C2(C)C(=O)Nc3nc(-n4nc(CCC(F)(F)C(F)(F)F)c5ncc(F)cc54)nc(N)c32)n1)C(=O)O` (single isomer, unassigned) [Compound 37-1]: the “Lung AUC0-t” value was 3281 ng·h/mL and the “Lung Cmax” value came out at 1729 ng/mL. On to `CC(C)(Cc1csc([C@]2(C)C(=O)Nc3nc(-c4nc(CCC(F)(F)C(F)(F)F)n5ncccc45)nc(N)c32)n1)C(=O)O` [Compound 3-1], for which the “Lung AUC0-t” value worked out at 3626 ng·h/mL and the “Lung Cmax” value was determined as 2979 ng/mL. For `CC(C)(Cc1csc([C@]2(C)C(=O)Nc3nc(-c4nc(CCC(F)(F)C(F)(F)F)n5cc(F)ccc45)nc(N)c32)n1)C(=O)O` [Compound 45-1], the “Lung AUC0-t” value turned out to be 4500 ng·h/mL and the “Lung Cmax” value was found to be 2846 ng/mL.
